Reference: publication PMC9977302, “Medium-chain fatty acids suppress lipotoxicity-induced hepatic fibrosis via the immunomodulating receptor GPR84” (JCI Insight, 2023)
Like-named read-outs stand apart in the source and are kept apart here.

Molecular target: GPR84 (Mus musculus, UniProt Q8CIM5)
Assay: cAMP inhibition assay in Dox-inducible mouse GPR84 HEK293 cells, with Dox-uninduced controls
Type: cell-based

Sequence of GPR84 (Q8CIM5 whole entry): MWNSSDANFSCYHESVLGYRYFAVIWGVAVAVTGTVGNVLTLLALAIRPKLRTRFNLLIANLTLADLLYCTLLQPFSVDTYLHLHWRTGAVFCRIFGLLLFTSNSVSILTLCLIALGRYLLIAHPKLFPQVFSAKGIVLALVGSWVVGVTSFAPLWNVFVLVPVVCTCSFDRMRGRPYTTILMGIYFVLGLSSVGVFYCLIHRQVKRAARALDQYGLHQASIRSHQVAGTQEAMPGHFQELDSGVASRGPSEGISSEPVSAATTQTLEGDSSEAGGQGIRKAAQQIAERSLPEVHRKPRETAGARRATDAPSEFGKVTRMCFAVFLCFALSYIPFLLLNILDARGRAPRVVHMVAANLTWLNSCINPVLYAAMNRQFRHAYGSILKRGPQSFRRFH

| EC50 (read-out: EC50) | SMILES | EC50 |
| --- | --- | --- |
| 4.4 µM | CCCCCCCCCCCC(=O)O [C12:0] |  |
|  | CCCCCCCCCC(=O)O [C10:0, capric acid] | 3.5 µM |
